Test results from patent US20240327430A1 (Breakpoint Therapeutics GmbH, priority 2023, published 2024).

The compounds below were run against truncated Polθ protein (Polθ-Hel containing the helicase domain (67-894)) (Homo sapiens (Human), UniProt O75417) (assay: Polθ ATPase assay (Biological Assay 1, ADP-Glo luminescence)). Details: Table B; compounds of Experimental Part B, in vitro; read-out: Polθ ATPase assay IC50.
Format: biochemical
Method in brief: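 Polθ-Hel (0.5 nM) with 500 nM ssDNA oligo in pH 8.8 Tris buffer (5 mM MgCl2, 1 mM DTT) was preincubated with compound 30 min at 23 °C. The reaction ran 60 min after 60 μM ATP was added (stated as the added solution, not final). ADP formed was detected by ADP-Glo luminescence to derive IC50.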

truncated Polθ protein (Polθ-Hel containing the helicase domain (67-894)), sequence (O75417 67-894): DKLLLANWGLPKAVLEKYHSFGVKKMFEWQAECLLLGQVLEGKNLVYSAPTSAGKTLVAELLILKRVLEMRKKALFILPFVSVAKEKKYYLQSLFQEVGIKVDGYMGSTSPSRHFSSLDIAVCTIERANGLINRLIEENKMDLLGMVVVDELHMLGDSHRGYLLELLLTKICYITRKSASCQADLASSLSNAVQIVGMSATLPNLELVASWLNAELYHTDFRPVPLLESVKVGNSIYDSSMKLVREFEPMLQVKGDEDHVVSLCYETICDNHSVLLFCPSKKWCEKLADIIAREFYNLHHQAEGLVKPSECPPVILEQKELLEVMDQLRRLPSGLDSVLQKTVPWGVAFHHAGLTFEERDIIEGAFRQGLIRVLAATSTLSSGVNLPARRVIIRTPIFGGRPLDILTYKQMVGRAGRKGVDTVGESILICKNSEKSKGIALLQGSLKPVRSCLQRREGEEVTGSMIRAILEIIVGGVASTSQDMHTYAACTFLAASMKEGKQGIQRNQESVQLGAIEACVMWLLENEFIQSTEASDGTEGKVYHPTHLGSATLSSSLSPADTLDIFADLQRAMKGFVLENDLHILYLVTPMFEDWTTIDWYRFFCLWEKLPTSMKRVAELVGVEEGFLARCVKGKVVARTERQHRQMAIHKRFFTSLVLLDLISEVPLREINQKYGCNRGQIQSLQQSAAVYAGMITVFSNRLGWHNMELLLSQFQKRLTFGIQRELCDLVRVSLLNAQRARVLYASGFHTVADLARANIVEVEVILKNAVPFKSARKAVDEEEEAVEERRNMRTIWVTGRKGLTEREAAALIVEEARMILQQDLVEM

SMILES	IC50 [nM]
COc1cnc(Cl)cc1-c1cc(C)ncc1C(=O)Nc1nc2cc(OC(C)C)ccc2s1 [Example 112, 2′-chloro-5′-methoxy-6-methyl-N-[5-(propan-2-yloxy)-1,3-benzothiazol-2-yl]-[4,4′-bipyridine]-3-carboxamide]	< 100
COc1cnc(Cl)cc1-c1cc(C)ncc1C(=O)Nc1nc2cc(OCC3CS(=O)(=O)C3)ccc2s1 [Example 113, 2′-chloro-N-{5-[(1,1-dioxo-1-λ6-thietan-3-yl)methoxy]-1,3-benzothiazol-2-yl}-5′-methoxy-6-methyl-[4,4′-bipyridine]-3-carboxamide]	100 to 1000
CCOc1ccc2sc(NC(=O)c3cnc(C)cc3-c3cc(Cl)ncc3OC)nc2c1 [Example 114, 2′-chloro-N-(5-ethoxy-1,3-benzothiazol-2-yl)-5′-methoxy-6-methyl-[4,4′-bipyridine]-3-carboxamide]	100 to 1000
COc1cnc(Cl)cc1-c1cc(C)ncc1C(=O)Nc1nc2cc(OCCOC(F)(F)F)ccc2s1 [Example 115, 2′-chloro-5′-methoxy-6-methyl-N-{5-[2-(trifluoromethoxy)ethoxy]-1,3-benzothiazol-2-yl}-[4,4′-bipyridine]-3-carboxamide]	100 to 1000
COc1cnc(C(F)(F)F)cc1-c1cc(CC(=O)N(C)C)ncc1C(=O)Nc1nc2cncnc2s1 [Example 116, 6-[(dimethylcarbamoyl)methyl]-5′-methoxy-N-{[1,3]thiazolo[5,4d]pyrimidin-2-yl}-2′-(trifluoromethyl)-[4,4′-bipyridine]-3-carboxamide]	< 100
COc1cnc(C)cc1-c1cc(C)ncc1C(=O)Nc1nc2cnc(N3CCC(O)CC3)nc2s1 [Example 117, N-[5-(4-hydroxypiperidin-1-yl)-[1,3]thiazolo[5,4-d]pyrimidin-2-yl]-5′-methoxy-2′,6-dimethyl-[4,4′-bipyridine]-3-carboxamide]	< 100
COc1cnc(Cl)cc1-c1cc(C)ncc1C(=O)Nc1nc2cnc(NCCCCC(=O)O)cc2s1 [Example 119, 5-[(2-{2′-chloro-5′-methoxy-6-methyl-[4,4′-bipyridine]-3-amido}-[1,3]thiazolo[4,5-c]pyridin-6-yl)amino]pentanoic acid]	< 100
COc1cnc(Cl)cc1-c1cc(C)ncc1C(=O)Nc1nc2ccc(NCCCCC(=O)O)nc2s1 [Example 120, 5-[(2-{2′-chloro-5′-methoxy-6-methyl-[4,4′-bipyridine]-3-amido}-[1,3]thiazolo[5,4-b]pyridin-5-yl)amino]pentanoic acid]	< 100
COc1cnc(Cl)cc1-c1cc(C)ncc1C(=O)Nc1nc2cc(OCc3nn[nH]n3)ccc2s1 [Example 121, 2′-chloro-5′-methoxy-6-methyl-N-{5-[(2H-1,2,3,4-tetrazol-5-yl)methoxy]-1,3-benzothiazol-2-yl}-[4,4′-bipyridine]-3-carboxamide]	< 100
COc1cnc(Cl)cc1-c1cc(C)ncc1C(=O)Nc1nc2cc(O)ccc2s1 [Example 122, 2′-chloro-N-(5-hydroxy-1,3-benzothiazol-2-yl)-5′-methoxy-6-methyl-[4,4′-bipyridine]-3-carboxamide]	< 100
COc1cnc(Cl)cc1-c1cc(C)ncc1C(=O)Nc1nc2cc(OCCOC(C)=O)ccc2s1 [Example 123, 2-[(2-{2′-chloro-5'-methoxy-6-methyl-[4,4′-bipyridine]-3-amido}-1,3-benzothiazol-5-yl)oxy]ethyl acetate]	< 100
COc1cnc(Cl)cc1-c1cc(C)ncc1C(=O)Nc1nc2cc(OCCO)ccc2s1 [Example 124, 2′-chloro-N-[5-(2-hydroxyethoxy)-1,3-benzothiazol-2-yl]-5′-methoxy-6-methyl-[4,4′-bipyridine]-3-carboxamide]	< 100
COc1cnc(Cl)cc1-c1cc(C)ncc1C(=O)Nc1nc2c(OCC#N)ncnc2s1 [Example 126, 2′-chloro-N-[7-(cyanomethoxy)-[1,3]thiazolo[5,4-d]pyrimidin-2-yl]-5′-methoxy-6-methyl-[4,4′-bipyridine]-3-carboxamide]	< 100
COc1cnc(Cl)cc1-c1cc(C)ncc1C(=O)Nc1nc2c(OCC(N)=O)ncnc2s1 [Example 127, N-[7-(carbamoylmethoxy)-[1,3]thiazolo[5,4-d]pyrimidin-2-yl]-2′-chloro-5′-methoxy-6-methyl-[4.4′-bipyridine]-3-carboxamide]	< 100
COc1cnc(Cl)cc1-c1cc(C)ncc1C(=O)Nc1nc2ccc(C3COCCN3)cc2s1 (centres unmarked) [Example 128, 2′-chloro-5′-methoxy-6-methyl-N-[6-(morpholin-3-yl)-1,3-benzothiazol-2-yl]-[4,4′-bipyridine]-3-carboxamide]	< 100
COc1cnc(Cl)cc1-c1cc(C)ncc1C(=O)Nc1nc2cnc(NCC(C)(C)O)cc2s1 [Example 130, 2′-chloro-N-{6-[(2-hydroxy-2-methylpropyl)amino]-[1,3]thiazolo[4,5-c]pyridin-2-yl}-5′-methoxy-6-methyl-[4,4′-bipyridine]-3 carboxamide]	< 100
COc1cnc(Cl)cc1-c1cc(C)ncc1C(=O)Nc1nc2cnc(N3CC(C)(OC)C3)cc2s1 [Example 131, 2′-chloro-5′-methoxy-N-[6-(3-methoxy-3-methylazetidin-1-yl)-[1,3]thiazolo[4,5-c]pyridin-2-yl]-6-methyl-[4,4′-bipyridine]-3-carboxamide]	< 100
COc1cnc(Cl)cc1-c1cc(C)ncc1C(=O)Nc1nc2c(C)nc(N3CCC(O)CC3)nc2s1 [Example 132, 2′-chloro-N-[5-(4-hydroxypiperidin-1-yl)-7-methyl-[1,3]thiazolo[5,4-d]pyrimidin-2-yl]-5′-methoxy-6-methyl-[4,4′-bipyridine]-3-carboxamide]	< 100

Next, values leading:

IC50 [nM]	SMILES
< 100	COc1cnc(Cl)cc1-c1cc(C)ncc1C(=O)Nc1nc2cnc(N3CC(C)(OC)C3)nc2s1 [Example 97, 2′-chloro-5′-methoxy-N-[5-(3-methoxy-3-methylazetidin-1-yl)-[1,3]thiazolo[5,4-d]pyrimidin-2-yl]-6-methyl-[4,4′-bipyridine]-3-carboxamide]
< 100	COc1cnc(Cl)cc1-c1cc(C)ncc1C(=O)Nc1nc2c(Br)cccc2s1 [Example 99, N-(4-bromo-1,3-benzothiazol-2-yl)-2′-chloro-5′-methoxy-6-methyl-[4,4′-bipyridine]-3-carboxamide]
< 100	COc1cnc(Cl)cc1-c1cc(C)ncc1C(=O)Nc1nc2c(CCC(=O)N(C)C)cccc2s1 [Example 100, 2′-chloro-N-{4-[2-(dimethylcarbamoyl)ethyl]-1,3-benzothiazol-2-yl}-5′-methoxy-6-methyl-[4,4′-bipyridine]-3-carboxamide]
< 100	COc1cnc(Cl)cc1-c1cc(C)ncc1C(=O)Nc1nc2cc(OCC#N)ccc2s1 [Example 101, 2′-chloro-N-[5-(cyanomethoxy)-1,3-benzothiazol-2-yl]-5′-methoxy-6-methyl-[4,4′-bipyridine]-3-carboxamide]
< 100	CNC(=O)C(F)(F)Oc1ccc2sc(NC(=O)c3cnc(C)cc3-c3cc(Cl)ncc3OC)nc2c1 [Example 102, 2′-chloro-N-{5-[difluoro(methylcarbamoyl)Methoxy]-1,3-benzothiazol-2-yl}-5′-methoxy-6-methyl-[4,4′-bipyridine]-3-carboxamide]
< 100	COc1cnc(Cl)cc1-c1cc(C)ncc1C(=O)Nc1nc2cc(Br)ccc2s1 [Example 103, N-(5-bromo-1,3-benzothiazol-2-yl)-2′-chloro-5′-methoxy-6-methyl-[4,4′-bipyridine]-3-carboxamide]
< 100	COc1cnc(Cl)cc1-c1cc(C)ncc1C(=O)Nc1nc2cc(OC(F)(F)C(=O)N(C)C)ccc2s1 [Example 104, 2′-chloro-N-{5-[(dimethylcarbamoyl)difluoromethoxy]-1,3-benzothiazol-2-yl}-5′-methoxy-6-methyl-[4,4′-bipyridine]-3-carboxamide]
< 100	CNC(=O)c1ccc2sc(NC(=O)c3cnc(C)cc3-c3cc(Cl)ncc3OC)nc2c1 [Example 105, 2′-chloro-5′-methoxy-6-methyl-N-[5-(methylcarbamoyl)-1,3-benzothiazol-2-yl]-[4,4′-bipyridine]-3-carboxamide]
< 100	COc1ccc2sc(NC(=O)c3cnc(C)cc3-c3cc(Cl)ncc3OC)nc2c1 [Example 106, 2′-chloro-5′-methoxy-N-(5-methoxy-1,3-benzothiazol-2-yl)-6-methyl-[4,4′-bipyridine]-3-carboxamide]
< 100	COCCNC(=O)c1ccc2sc(NC(=O)c3cnc(C)cc3-c3cc(Cl)ncc3OC)nc2c1 [Example 107, 2′-chloro-5′-methoxy-N-{5-[(2-methoxyethyl)carbamoyl]-1,3-benzothiazol-2-yl}-6-methyl-[4,4′-bipyridine]-3-carboxamide]
< 100	COc1cnc(Cl)cc1-c1cc(C)ncc1C(=O)Nc1nc2c(OCC(=O)N(C)C)ncnc2s1 [Example 108, 2′-chloro-N-{7-[(dimethylcarbamoyl)methoxy]-[1,3]thiazolo[5,4-d]pyrimidin-2-yl}-5′-methoxy-6-methyl-[4,4′-bipyridine]-3-carboxamide]
< 100	COc1cnc(Cl)cc1-c1cc(C)ncc1C(=O)Nc1nc2cc(OCC3CCN(C(C)=O)CC3)ccc2s1 [Example 109, N-{5-[(1-acetylpiperidin-4-yl)methoxy]-1,3-benzothiazol-2-yl}-2′-chloro-5′-methoxy-6-methyl-[4,4′-bipyridine]-3-carboxamide]
< 100	COc1cnc(Cl)cc1-c1cc(C)ncc1C(=O)Nc1nc2cc(OCC(=O)N(C)C)ccc2s1 [Example 110, 2′-chloro-N-{5-[(dimethylcarbamoyl)methoxy]-1,3-benzothiazol-2-yl}-5′-methoxy-6-methyl-[4,4′-bipyridine]-3-carboxamide]
< 100	COc1cnc(Cl)cc1-c1cc(C)ncc1C(=O)Nc1nc2cc(OCCN3CCOCC3)ccc2s1 [Example 111, 2′-chloro-5′-methoxy-6-methyl-N-{5-[2-(morpholin-4-yl)ethoxy]-1,3-benzothiazol-2-yl}-[4,4′-bipyridine]-3-carboxamide]
